Bridge positions count the residues as written; N and C are the ends. Peptide text beside a SMILES is read from it. * marks the point of attachment. FITC = O=C1OC2(c3ccc(O)cc3Oc3cc(O)ccc32)c2ccc(NC(=S)*)cc21
Tests used:
ACA-6501 [1] = assay: Phage-ELISA; format: binding, human; settings: phage clones coated on wells, affACA-6501 2.5 μg/mL
Procedure: This method of selecting phage requires very tight binding of the insert to the screening antibody. Phage are directly coated onto wells of a microtitration plate and incubated with the screening antibody. Following washes to remove unbound antibody, an anti-human IgG alkaline phosphatase conjugate is added to bind any aPL antibodies bound to the phage. APL antibodies are then detected by adding a calorimetric substrate to the well which will react with alkaline phosphatase according to methods well known in the art.
Three mL cultures were prepared from 35 clones previously isolated with affinity purified ACA-6501 in several phage library screens as well as one fUSE 2 phage clone lacking a peptide insert which was used as a control. After centrifugation for 3 minutes at 17,000×g, 100 μL from each phage supernatant (adjusted to −2×10^11 particles/mL, based on absorbance) was added to microtitration plate wells (Falcon, Becton-Dickinson Labware, Lincoln Park, N.Y.) and allowed to incubate overnight at 4° C. Following four washes with TBS 7.4, the plate was blocked with 125 μL of 0.5% BSA/TBS for 1 hour at RT. After another four TBS washes, 100 μL of affACA-6501 previously diluted to 2.5 μg/mL in TBS/BSA was added to each well and allowed to incubate 1 hour at 37° C. Following an additional four washes, 100 μL anti-human IgG diluted 1:1000 in TBS/0.5% Tween was added to each well. After 1 hour at RT, enzyme substrate was added and the incubation allowed to proceed for 2 hours. Following the addition of 50 μL 0.2 M Na2HPO4 to stop the reaction, absorbance was measured at 550 nm in the automated plate absorbance reader. […] The sequences for these clones are showvn in Table 2.

aPL sera = assay: Resin-bound peptide binding survey of patient sera; set-up: species or system human
Excerpt: Two peptides were selected for aPL sera testing, one (5A12) representing the ACA-6501 screen and another one (4D3) representing the ACA-6626 screen. […] However, a significant degree of crossreactivity was detectable especially between ACA-6501 and ACA-6626.

[2] = tested on: affinity-purified ACA-6501 aPL antibody; assay: Resin-bound peptide binding of affinity-purified IgG aPL antibody; set-up: species or system human; settings: immunoconjugate color reaction, versus unrelated control peptide and normal IgG
Excerpt: Phage sequences obtained with affinity-purified ACA-6501 and found to be phage-ELISA-positive were synthesized on a solid support recently developed for combinatorial synthetic peptide libraries. This support, a Rapp resin, has a high peptide density and uses a hydrophilic polyethylene glycol spacer before the first amino acid is coupled. […] Similar results were obtained with the other phage-ELISA-positive peptides tested. In the experiment shown, resin peptide-bound affinity-purified ACA-6501 aPL antibody was detected by an immunoconjugate color reaction.

ACA-6701 = assay: Direct binding fluorescence polarization binding assay (dbFP) and displacement kinetics; set-up: species or system human; settings: for Kd: dbFP
Excerpt: (§1) This assay detects direct binding of the peptide to aPL antibody. Since aPL antibodies bind to β2-GPI (the antigen), the ELISA competitive inhibition assay can show inhibition due to binding to β2-GPI as well inhibition due to binding of the peptide to the aPL antibody. Because binding to antibodies is required in order for the peptide to function as a Toleragen, it is essential to establish that a peptide can directly bind to an aPL antibody. This assay is used to determine the dissociation constants for peptides that bind to two aPL antibodies, ACA-6501 and ACA-6701. While the ELISA assay is useful for high throughput screening because it requires less antibody than the Fluorescence Polarization assay, however, ELISA-positive peptides should be further evaluated by the Fluorescence Polarization assay to determine whether they are capable of directly binding with aPL antibody.
(§2) The methodology is described in PanVera Application Guide (1994), PanVera Corporation. Briefly, a trace amount of fluorescein isothiocyanate (FITC) labeled peptide (CB2*-F) is titrated with antibody (ACA 6501 or 6701) and the polarization for the sample is plotted versus the antibody concentration. Polarization was measured with the PanVera Beacon instrument. Data were fitted to Equation 1. [formula]
where Y is the Y-axis value (milli-polarization units, mP), R is the total concentration of antibody receptor, PL is the polarization for free FITC-labeled peptide (F), and PH is the polarization for F complexed with R (FR). KD is the dissociation constant (reciprocal binding, constant) for F from the FR complex. For these equations to be valid, it must be true that F<<R. This titration is shown in FIGS. 22 and 23 for CB2*-F binding to ACA-6701 and ACA-6501 antibodies, respectively. […] Thus, CB2*-F binding to ACA-6701 is limited only by diffusion of these two molecules together.

ACA-6501 [3] = assay: Direct binding fluorescence polarization binding assay (dbFP); set-up: species or system human
Excerpt: as §1
as §2, with “[formula] […]” for “[formula]”

Kd (ACA-6701; from Equation 1, not corrected for antibody bivalency) [nM] | Kd (ACA-6701; multiplied by 2 to correct for antibody bivalency) [nM] | dissociation rate constant Koff (ACA-6701; displacement of CB2*-F from 6701 by slight excess of CB2*) [s⁻¹] | association rate constant Kon (ACA-6701; from KD and Koff, after correcting for antibody bivalency) [M⁻¹ s⁻¹] | Kd (ACA-6501 [3]; dbFP titration of FIG. 24, from Equation 1, not corrected for antibody bivalency) [nM] | Kd (ACA-6501 [3]; dbFP, multiplied by 2 to correct for antibody bivalency) [nM] | Compound | signal in the phage-ELISA (ACA-6501 [1]) | pathologic sera (moderate to high GPL) with detectable peptide binding (aPL sera; 13 pathologic sera) | control sera (low or no GPL score) with low peptide binding (aPL sera; 19 patient sera) | binding of affinity-purified ACA-6501 to resin-bound peptide [2]
– | – | – | – | – | – | CC[C@H](C)[C@@H]1NC(=O)[C@H](CC(C)C)NC(=O)[C@@H](NC(=O)[C@@H]2CCCN2C(=O)CNC(=O)[C@H](C)N)CSSC[C@@H](C(=O)N2CCC[C@H]2C(=O)NCC(=O)O)NC(=O)[C@H](CCCNC(=N)N)NC(=O)[C@H](CC(=O)O)NC(=O)[C@@H]2CCCN2C(=O)[C@H](C)NC(=O)[C@H](CC(C)C)NC1=O [5A12, CLILAPDRC] | significant signals | 8 of the 13 | 2 out of 19 | dramatically outperformed an unrelated control peptide while not binding normal IgG
256 | 512 | 0.0184 | 36000 | 241 | 482 | CC[C@H](C)[C@@H]1NC(=O)[C@@H](NC(=O)[C@@H]2CCCN2C(=O)CNC(=S)Nc2ccc3c(c2)C(=O)OC32c3ccc(O)cc3Oc3cc(O)ccc32)CSSC[C@@H](C(=O)NCC(=O)O)NC(=O)[C@H](CCCNC(=N)N)NC(=O)[C@H](CC(=O)O)NC(=O)[C@H](CCCNC(=N)N)NC(=O)[C@H](C)NC(=O)[C@H](CC(C)C)NC(=O)[C@H](CC(C)C)NC1=O [CB2*-F, FITC-GPCILLARDRCG] ({FITC}-GPCILLARDRCG-OH; disulfide 3-11) | – | – | – | –
